US10125126B2, “N-cycloalkyl-N-[(heterocyclylphenyl)methylene]-(thio)carboxamide derivatives” (BAYER CROPSCIENCE AG, priority 2012, dated 2018)

Tests used:
[1] = system: Pyrenophora teres; assay: In vivo preventive test on Pyrenophora teres (barley); details: 500 ppm of active ingredient; barley plants; 14 days after contamination
Protocol: In Vivo Preventive Test on Pyrenophora teres (Barley) […] Barley plants (“Plaisant” variety), sown in starter cups on a 50/50 peat soil pozzolana substrate and grown at 22° C., are treated at the 1 leaf stage (10 cm height) by spraying with the active ingredient prepared as described above. Plants, used as controls, are treated with the mixture of acetone/tween/DMSO/water not containing the active material. After 24 hours, the plants are contaminated by spraying the leaves with an aqueous suspension of Pyrenophora teres spores (12 000 spores per mL). The spores are collected from a 12-day-old culture. […] Grading (% of efficacy) is carried out 14 days after the contamination, in comparison with the control plants.

[2] = system: Alternaria brassicae; assay: In vivo preventive test on Alternaria brassicae (leaf spot on radish); details: 500 ppm of active ingredient; radish plants; 6 days after contamination
Protocol: In Vivo Preventive Test on Alternaria brassicae (Leaf Spot on Radish) […] Radish plants (“Pernod Clair” variety), sown in starter cups on a 50/50 peat soil pozzolana substrate and grown at 17° C., are treated at the cotyledon stage by spraying with the active ingredient prepared as described above. Plants, used as controls, are treated with the mixture of acetone/tween/DMSO/water not containing the active material. After 24 hours, the plants are contaminated by spraying the cotyledons with an aqueous suspension of Alternaria brassicae spores (50 000 spores per mL). The spores are collected from a 15-day-old culture. The contaminated radish plants are incubated at 20° C. and at 100% relative humidity. Grading (% of efficacy) is carried out 6 days after the contamination, in comparison with the control plants.

[3] = system: Botrytis cinerea; assay: In vivo preventive test on Botrytis cinerea (grey mould); details: 500 ppm of active ingredient; gherkin plants; 4 to 5 days after contamination
Method in brief: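 Gherkin plants at cotyledon stage Z11 were sprayed with compound, then inoculated 24 h later with Botrytis cinerea spores (50 000 spores per mL in nutrient solution). Plants were kept at 17° C and 90% RH, and percent efficacy versus solvent-treated controls was graded 4 to 5 days after contamination.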

[4] = system: Pyricularia oryzae; assay type: in vivo; details: 500 ppm of active ingredient; rice plants; 6 days after contamination
[5] = log P by HPLC on a reversed-phase column (C 18), EEC Directive 79/831 Annex V.A8; assay type: physicochemical; details: for logP: HPLC on reversed-phase column (C 18), 40° C., 0.1% aqueous formic acid and acetonitrile, linear gradient 10% to 90% acetonitrile
Method in brief: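 Reversed-phase C18 HPLC at 40° C with a linear 10% to 90% acetonitrile gradient against 0.1% aqueous formic acid. Log P is read from retention time by linear interpolation between successive unbranched alkan-2-ones (C3–C16) of known log P. UV spectra from 200 to 400 nm, taken at chromatographic peak maxima, give lambda-max.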

[6] = system: Septoria tritici; assay: In vivo preventive test on Septoria tritici (wheat); details: 500 ppm of active ingredient; wheat plants; 24 days after contamination
Method in brief: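 Scipion wheat grown at 22° C, sprayed at 1-leaf stage (10 cm); controls received acetone/tween/DMSO/water without active. Inoculated 24 h later with S. tritici spores (500 000/mL), held 72 h at 18° C, 100% RH, then 21 days at 90% RH. % efficacy vs controls scored 24 days post-inoculation.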

[7] = system: Sphaerotheca fuliginea; assay: In vivo preventive test on Sphaerotheca fuliginea (powdery mildew on cucurbits); details: 500 ppm of active ingredient, gherkin plants, 12 days after contamination; for pest or weed control at 500 ppm: Podosphaera fuliginea, 288 h, read-out: Efficacy
Method in brief: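 Gherkin plants ("Vert petit de Paris") grown at 24 °C were sprayed at cotyledon stage Z11; controls received acetone/tween/DMSO/water without active. Inoculation 24 h later by spraying cotyledons with 100 000 spores/mL. Efficacy (%) graded 12 days post-contamination versus controls.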

[8] = system: Venturia inaequalis; assay: In vivo preventive test on Venturia inaequalis (apples); details: 100 ppm of active ingredient, evaluated 10 days after inoculation
Protocol: In Vivo Preventive Test on Venturia inaequalis (apples) [table] To produce a suitable preparation of active compound, 1 part by weight of active compound is mixed with the stated amounts of solvent and emulsifier, and the concentrate is diluted with water to the desired concentration. To test for preventive activity, young plants are sprayed with the preparation of active compound at the stated rate of application. After the spray coating has dried on, the plants are inoculated with an aqueous conidia suspension of the causal agent of apple scab (Venturia inaequalis) and then remain for 1 day in an incubation cabinet at approximately 20° C. and a relative atmospheric humidity of 100%. The plants are then placed in a greenhouse at approximately 21° C. and a relative atmospheric humidity of approximately 90%.

[9] = system: Uromyces appendiculatus; assay: In vivo preventive test on Uromyces appendiculatus (bean rust); details: 500 ppm of active ingredient; bean plants; 11 days after contamination
Method in brief: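 Saxa bean plants at 2-leaf stage, grown at 24° C., sprayed preventively with compound; 24 h later inoculated with U. appendiculatus spores (150 000 spores per mL). Percent efficacy graded 11 days after inoculation versus solvent-treated controls.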

[10] = system: Puccinia recondita; assay: In vivo preventive test on Puccinia recondita (brown rust on wheat); details: 500 ppm of active ingredient; wheat plants; 12 days after contamination
Method in brief: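 Wheat plants ("Scipion") at 1-leaf stage, grown at 22° C, were sprayed with compound, then inoculated 24 h later with Puccinia recondita spores (100 000 spores per mL). Efficacy (%) graded 12 days after inoculation relative to solvent-treated controls.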

[11] = system: Leptosphaeria nodorum; assay: In vivo preventive test on Leptosphaeria nodorum (wheat); details: 500 ppm of active ingredient, evaluated 8 days after inoculation
Protocol: In Vivo Preventive Test on Leptosphaeria nodorum Test (Wheat) [table] To produce a suitable preparation of active compound, 1 part by weight of active compound or active compound combination is mixed with the stated amounts of solvent and emulsifier, and the concentrate is diluted with water to the desired concentration. To test for preventive activity, young plants are sprayed with the preparation of active compound or active compound combination at the stated rate of application. After the spray coating has been dried, the plants are sprayed with a spore suspension of Leptosphaeria nodorum. The plants remain for 48 hours in an incubation cabinet at approximately 20° C. and a relative atmospheric humidity of approximately 100%.

[12] = system: Blumeria graminis f.sp. hordei; assay: In vivo preventive test on Blumeria graminis (barley); details: 500 ppm of active ingredient, evaluated 7 days after inoculation
Protocol: In Vivo Preventive Test on Blumeria graminis (Barley) [table] To produce a suitable preparation of active compound, 1 part by weight of active compound or active compound combination is mixed with the stated amounts of solvent and emulsifier, and the concentrate is diluted with water to the desired concentration. To test for preventive activity, young plants are sprayed with the preparation of active compound or active compound combination at the stated rate of application. After the spray coating has been dried, the plants are dusted with spores of Blumeria graminis f.sp. hordei.

Row | SMILES | Efficacy [1] | Efficacy [2] | Efficacy [3] | Efficacy [4] | logP [5] | Efficacy [6] | Efficacy [7] | Efficacy [8] | Efficacy [9] | Efficacy [10] | Efficacy [11] | Efficacy [12] | chromatographic logP [5] | pest or weed control at 500 ppm [7]
1 | Cc1csc(-c2ccc(C(C)C)c(CN(C(=O)c3c(C(F)F)nn(C)c3F)C3CC3)c2)c1 [I.106] | 93% | 100% | 80% | 80% | 4.93 | 80% | 100% | – | – | – | – | – | – | –
2 | Cn1nc(C(F)F)c(C(=O)N(Cc2ccccc2-c2ccc(Cl)s2)C2CC2)c1F [I.139] | 100% | 73% | 100% | – | 4.32 | 96% | – | 100% | 100% | 94% | – | – | – | –
3 | Cn1nc(C(F)F)c(C(=O)N(Cc2ccccc2C2(C)CO2)C2CC2)c1F (stereo not shown) [I.3] | 88% | – | – | – | 2.68 | 100% | 100% | 96% | 100% | 94% | 92% | 100% | – | –
4 | Cn1nc(C(F)F)c(C(=O)N(Cc2cc(Cl)ccc2C2(C)CO2)C2CC2)c1F (stereo not shown) [I.4, N-[5-chloro-2-(2-methyloxiran-2-yl)benzyl]-N-cyclopropyl-3-(difluoromethyl)-5-fluoro-1-methyl-1H-pyrazole-4-carboxamide] | 96% | – | – | – | – | 100% | – | 100% | 100% | 98% | 80% | 94% | 3.19 | 100%
5 | CC(C)c1ccc(-c2coc3ccccc23)cc1CN(C(=O)c1c(C(F)F)nn(C)c1F)C1CC1 [I.132] | 88% | 97% | 99% | 80% | 4.90 | 100% | 100% | – | 77% | 83% | – | – | – | –
6 | Cc1csc(-c2ccccc2CN(C(=O)c2c(C(F)F)nn(C)c2F)C2CC2)c1 [I.100, N-cyclopropyl-3-(difluoromethyl)-5-fluoro-1-methyl-N-[2-(4-methyl-2-thienyl)benzyl]-1H-pyrazole-4-carboxamide] | 95% | – | 80% | – | – | 100% | – | – | 100% | 100% | 83% | 100% | 3.99 | 100%
7 | COc1ccsc1-c1ccc(F)cc1CN(C(=O)c1c(C(F)F)nn(C)c1F)C1CC1 [I.119] | 71% | – | – | 70% | 3.63 | 90% | 100% | – | 100% | 100% | – | – | – | –
